# Measurements as given in BindingDB's records for doi:10.7270/Q2T72FVT (University of Pittsburgh, 2007).
# Molecular target: Serine/threonine-protein kinase PLK1 (Homo sapiens, UniProt P53350)
# Experiment: potency against Plk1 PBD phosphopeptide binding – biochemical, fluorescence polarization, dose response (AID 877)
# Chain of Serine/threonine-protein kinase PLK1 (P53350 whole entry): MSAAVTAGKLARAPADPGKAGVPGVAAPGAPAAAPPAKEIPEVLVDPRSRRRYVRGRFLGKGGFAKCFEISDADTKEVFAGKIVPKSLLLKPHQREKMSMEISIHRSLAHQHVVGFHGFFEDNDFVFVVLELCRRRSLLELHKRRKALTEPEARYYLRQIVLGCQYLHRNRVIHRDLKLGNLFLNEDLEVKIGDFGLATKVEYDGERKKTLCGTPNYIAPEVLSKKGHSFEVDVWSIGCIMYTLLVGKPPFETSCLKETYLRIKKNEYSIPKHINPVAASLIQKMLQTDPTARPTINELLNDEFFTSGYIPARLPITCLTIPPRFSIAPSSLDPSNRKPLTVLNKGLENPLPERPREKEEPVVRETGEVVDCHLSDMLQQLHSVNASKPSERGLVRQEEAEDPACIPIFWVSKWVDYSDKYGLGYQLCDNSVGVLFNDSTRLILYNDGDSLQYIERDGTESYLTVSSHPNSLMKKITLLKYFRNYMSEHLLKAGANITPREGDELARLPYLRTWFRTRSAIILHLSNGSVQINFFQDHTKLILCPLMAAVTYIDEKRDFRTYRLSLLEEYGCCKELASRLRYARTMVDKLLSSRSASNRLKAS
row,IC50,SMILES
1,> 50 µM,"OCC(CO)(CO)N=Cc1cc(Br)ccc1O [(6E)-4-bromanyl-6-[[[2-(hydroxymethyl)-1,3-bis(oxidanyl)propan-2-yl]amino]methylidene]cyclohexa-2,4-dien-1-one]"
2,> 50 µM,"O=C(O)C1CCCCC1C(=O)Nc1ccc2c(c1)OCCO2 (stereo not given) [2-(2,3-dihydro-1,4-benzodioxin-6-ylcarbamoyl)cyclohexane-1-carboxylic acid]"
3,19.9 µM,"CCOC(=O)c1cc2n(c1N)-c1ccccc1C2=O [1-amino-4-keto-pyrrol[1,2-a]indole-2-carboxylic acid ethyl ester]"
4,> 50 µM,"CCC(Sc1nc2nnc(C)c-2c(N)n1-c1cccc(Cl)c1)C(=O)NCCOC (stereo not given) [2-[4-amino-5-(3-chlorophenyl)-3-methylpyrazolo[3,4-d]pyrimidin-6-yl]sulfanyl-N-(2-methoxyethyl)butanamide]"
5,> 50 µM,"Cc1ccc(Cl)cc1N1CCN(S(=O)(=O)c2ccc3c(c2)oc(=O)n3C)CC1 [6-[4-(5-chloranyl-2-methyl-phenyl)piperazin-1-yl]sulfonyl-3-methyl-1,3-benzoxazol-2-one]"
6,> 50 µM,Cc1ccc(NC(=O)C2CC=CCC2C(=O)N2CCCCC2)cc1 (stereo not given) [6-(Piperidine-1-carbonyl)-cyclohex-3-enecarboxylic acid p-tolylamide]
7,> 50 µM,"CC1Cn2c(nnc2-c2cc3ccccc3cc2O)S1 (stereo not given) [(3E)-3-(6-methyl-5,6-dihydro-2H-[1,3]thiazolo[2,3-c][1,2,4]triazol-3-ylidene)naphthalen-2-one]"
8,> 50 µM,O=NCc1cc(Br)ccc1OCC(=O)O [2-[4-bromanyl-2-(hydroxyiminomethyl)phenoxy]ethanoic acid]
9,> 50 µM,Fc1ccc(Cn2nnnc2CN2CCN(C3CCCC3)CC2)cc1 [1-Cyclopentyl-4-[1-(4-fluoro-benzyl)-1H-tetrazol-5-ylmethyl]-piperazine]
10,> 50 µM,CCn1ncc(CN2CCN(C(=O)Nc3ccccc3C(=O)OC)CC2)c1C [2-[[4-[(1-ethyl-5-methyl-pyrazol-4-yl)methyl]piperazine-1-carbonyl]amino]benzoic acid methyl ester]
11,> 50 µM,NC(=O)Cn1c(S(=O)(=O)Cc2ccccc2)nc2ccccc21 [2-(2-benzylsulfonylbenzimidazol-1-yl)acetamide]
12,> 50 µM,"O=C(Nc1cccn(Cc2c(Cl)cccc2Cl)c1=O)c1c(Cl)cccc1Cl [2,6-dichloro-N-[1-(2,6-dichlorobenzyl)-2-keto-3-pyridyl]benzamide]"
13,> 50 µM,CCNC(=O)NC(=O)C(C)OC(=O)c1cccnc1SC (stereo not given) [2-(methylthio)-3-pyridinecarboxylic acid [1-(ethylcarbamoylamino)-1-oxopropan-2-yl] ester]
14,> 50 µM,"COc1ccc(N(C)C2=NS(=O)(=O)c3ccccc32)cc1 [(1,1-Dioxo-1H-1lambda*6*-benzo[d]isothiazol-3-yl)-(4-methoxy-phenyl)-methyl-amine]"
15,> 50 µM,Cc1ccc(NC2=CC(=NS(=O)(=O)c3cccs3)c3ccccc3C2=O)c(C)c1
16,> 50 µM,"C=CCn1c2ccccc2c2nnc(SCc3ccc4nonc4c3)nc21 [5-[(5-prop-2-enyl-[1,2,4]triazino[5,6-b]indol-3-yl)sulfanylmethyl]-2,1,3-benzoxadiazole]"
17,> 50 µM,"CCc1noc(C)c1C(=O)N1CCOCC1 [(3-ethyl-5-methyl-1,2-oxazol-4-yl)-morpholin-4-yl-methanone]"
18,> 50 µM,O=C1CCC(C(=O)O)(c2ccccc2)C1 (stereo not given) [3-Oxo-1-phenyl-cyclopentanecarboxylic acid]
19,> 50 µM,"O=C(NC(NC(=S)Nc1ccc(Cl)cc1Cl)C(Cl)(Cl)Cl)c1cccc([N+](=O)[O-])c1 (stereo not given) [3-nitro-N-[2,2,2-trichloro-1-({[(2,4-dichlorophenyl)amino]carbonothioyl}amino)ethyl]benzamide]"
20,> 50 µM,"CC(C)Nc1nnc(SCC(=O)c2c(N)n(Cc3ccccc3)c(=O)n(C)c2=O)s1 [6-amino-1-benzyl-3-methyl-5-[2-[[5-(propan-2-ylamino)-1,3,4-thiadiazol-2-yl]sulfanyl]acetyl]pyrimidine-2,4-dione]"
